Series [1] can be described thus: Selectivity, ratio of CC50 for dog MDCK cells to EC50 for Influenza (A/PR8/34(H1N1)) in MDCK cells.
Series [2] deals with Influenza A virus. The series is described as follows: Antiviral activity against Influenza (A/PR8/34(H1N1)). Type of series: functional, organism-based. Particulars: A/Puerto Rico/8/1934(H1N1).
The nature of series [3]: Selectivity, ratio of CC50 for dog MDCK cells to EC50 for Influenza (A/PR8/34(H1N1)).
A short description of series [4]: Cytotoxicity against MDCK cells by MTT assay. It is filed as cell-based, Canis lupus familiaris. The settings on record: dog. For orientation: Formazan colour is commonly taken as a measure of viable cells.
Series [5] has as its system Influenza A virus. Kind of series: Antiviral activity against Influenza A/PR8/34(H1N1)) in dog MDCK cells. It is filed as functional, organism-based. Particulars: A/Puerto Rico/8/1934(H1N1).

The source of these data is ChEMBL document CHEMBL1157513, “Enhanced anti-influenza A virus activity of (-)-epigallocatechin-3-O-gallate fatty acid monoester derivatives: effect of alkyl chain length” (Bioorg Med Chem Lett, 2008).

Each structure is given as a SMILES string.

The EC50 is the midpoint of the concentration-response curve. High values mean a less potent agent, low ones a more potent agent. For orientation: CC50 means the concentration that lowers cell viability or growth by half. A lower CC50 goes with greater toxicity to the cells. Consider `O=C(O[C@@H]1Cc2c(O)cc(O)cc2O[C@@H]1c1cc(O)c(O)c(O)c1)c1cc(O)c(O)c(O)c1` [EPIGALOCATECHIN GALLATE], for which the “Ratio CC50/EC50” value was found to be 2.91 in series [1] and 703 in series [3]. The EC50 in the series with Influenza A virus [2] was 0.391 µM; in the series with Influenza A virus [5] it was 94.6 µM. Moreover, the midpoint of cytotoxicity in series [4], the CC50, lay at 275 µM.
Turning to `CC(=O)Oc1cc(OC(C)=O)c2c(c1)O[C@H](c1cc(OC(C)=O)c(OC(C)=O)c(OC(C)=O)c1)[C@H](OC(=O)c1cc(OC(C)=O)c(OC(C)=O)c(OC(C)=O)c1)C2`, the half-maximal effective concentration (EC50) in the series on Influenza A virus [2] was determined as 8.49 µM; in the series on Influenza A virus [5], 77 µM.
